This is an account of results in paper PMC4982760, “Small-molecule inhibitors identify the RAD52-ssDNA interaction as critical for recovery from replication stress and for survival of BRCA2 deficient cells” (eLife, 2016).

Data set [1] concerns RAD52. Details: method as in Chandramouly et al., 2015. Conditions: ref Chandramouly et al., 2015; cited from earlier work.
The subject of data set [2] is GM01604 cells (hTERT-immortalized wild-type human fibroblasts). The experiment in a line: Neutral comet assay, MUS81/EME1/RAD52-dependent DSB formation. The format is cell-based. Conditions: Homo sapiens, Fibroblast; GM01604, 2 mM HU + 300 nM UCN01, 6h; read-out: IC50, decrease of mean tail moment following HU treatment. An excerpt: In human cells, RAD52 may perform both limited recombination-mediator function in the RAD51-dependent pathway ([Lok and Powell, 2012]; [Benson et al., 1998]; [Feng et al., 2011]) as well as additional RAD51-independent roles ([Lok and Powell, 2012]; [Murfuni et al., 2013]; [McIlwraith and West, 2008]). One of these HR independent roles of RAD52 involves stimulation of MUS81/EME1-dependent DSB formation at replication forks stalled by hydroxyurea (HU) treatment in the absence of cellular checkpoints ([Murfuni et al., 2013]). Since the most likely targets of these MUS81/EME1/RAD52-dependent DSBs are the DNA structures produced by RAD52 ([Murfuni et al., 2013]), we expected this activity to depend on the RAD52-ssDNA interaction (Figure 5a). To confirm this, we assessed DSB formation in checkpoint deficient cells using the neutral comet assay. These assays monitor MUS81/EME1/RAD52-dependent DSB formation upon induction of replication stress by HU treatment in primary fibroblasts immortalized by hTERT expression and treated with UNC01 to inhibit CHK1 kinase (Figure 5b). […] Importantly, these inhibitors recapitulate RAD52 depletion by inhibiting RAD52-MUS81-dependent DSBs at stalled replication forks (Figure 5a–b). […] It also confirms our previous supposition that the target of MUS81/EME1-mediated cleavage under these conditions are indeed the structures annealed by RAD52. […]
To induce RAD52-MUS81-dependent cleavage at arrested replication forks ([Murfuni et al., 2013]), hTERT-immortalized wild-type human fibroblasts (GM01604) were treated with 2 mM HU and 300 nM UCN01 for 6h, in the presence and absence of varying concentrations of ‘1’ or ‘6’. […] Slides were analyzed by a computerized image analysis system (Comet IV, Perceptive UK). To assess the quantity of DNA damage, computer-generated tail moment values (tail length x fraction of total DNA in the tail) were used. […] A minimum of 100 cells were analyzed for each compound concentration point.

For data set [3], the target named is T1, interaction between RAD52 and RPA proteins (Homo sapiens, UniProt P43351).
T1 construct: made in house
The experiment in a line: Ni-NTA pull-down of the RAD52-RPA interaction. Type of data set: binding. The settings on record: 3 μM RAD52, 3 μM RPA, 3 μM compound.

Data set [4] has as its target T2, RPA (Homo sapiens, UniProt P15927+P27694+P35244).
T2 construct: made in house
The experiment in a line: WaterLOGSY NMR binding to RPA. Conditions: 20-40 μM compound, 3.3 μM RPA. An excerpt:
(§1) To confirm that the selected compounds bind RAD52, we employed water-ligand observation with gradient spectroscopy (WaterLOGSY), an NMR technique, which is based on transfer of magnetization from bulk water to the protein-bound compound of interest ([Dalvit et al., 2001], [2000]). In WaterLOGSY spectrum, if a compound binds to a protein, the compound will receive negative nuclear Overhauser effects (NOEs) due to the slow tumbling of the protein-compound complex, leading to a positive WaterLOGSY peak. […] Similarly, the binding of ‘6’to RAD52 is evident from the positive WaterLOGSY peaks that are clearly detected for this compound (Figure 3a).
(§2) Compound binding to RAD52 and RPA proteins was analyzed using water-ligand observation with gradient spectroscopy (WaterLOGSY) NMR experiments ([Dalvit et al., 2001], [2000]). The WaterLOGSY spectra of compounds in the presence of RAD52 or RPA were acquired using a water NOE mixing time of 1 s and a T2 relaxation filter of 50 ms just before data acquisition to suppress the broad signals derived from protein. The protein buffer used in the experiments contains 10 mM Tris-d11, 75 mM KCl, 0.25 mM EDTA, pH 7.5, and 10% D20. All NMR data were acquired on a Bruker Avance II 800 MHz NMR spectrometer equipped with a sensitive cryoprobe and recorded at 25°C. The ^1H chemical shifts were referenced to 2,2-dimethyl-2-silapentane-5-sulfonate (DSS). NMR spectra were processed using NMR Pipe ([Delaglio et al., 1995]) and analysed using NMR View ([Johnson and Blevins, 1994]).

Data set [5] addresses T3, RAD52 (Homo sapiens, UniProt P43351).
T3 construct: made in house
T3 sequence (P43351 1-418): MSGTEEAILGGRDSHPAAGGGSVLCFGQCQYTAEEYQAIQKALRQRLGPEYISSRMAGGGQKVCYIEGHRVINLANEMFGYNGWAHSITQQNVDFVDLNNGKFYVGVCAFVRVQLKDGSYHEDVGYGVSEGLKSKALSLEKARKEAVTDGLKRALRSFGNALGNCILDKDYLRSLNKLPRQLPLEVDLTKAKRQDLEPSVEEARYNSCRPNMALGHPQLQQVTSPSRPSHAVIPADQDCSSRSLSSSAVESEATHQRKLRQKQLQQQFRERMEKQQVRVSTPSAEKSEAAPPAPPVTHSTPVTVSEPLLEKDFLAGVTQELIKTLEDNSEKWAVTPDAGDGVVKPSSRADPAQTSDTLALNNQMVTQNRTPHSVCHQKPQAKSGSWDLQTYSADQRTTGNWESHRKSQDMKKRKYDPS
Kind of data set: WaterLOGSY NMR binding to RAD52. Conditions: 20-40 μM compound, 3.3 μM RAD52.
Source text: as §1, §2

Data set [6] addresses T4, RPA-ssDNA interaction (Homo sapiens, UniProt P15927+P27694+P35244).
T4 construct: made in house
Kind of data set: FRET titration of the RPA-Cy3-dT30-Cy5 complex. Type of data set: binding. Conditions: range of tested concentrations. An excerpt: In the cell, ssDNA is typically found in complex with Replication protein A (RPA), the major eukaryotic ssDNA-binding protein essential for DNA replication, repair and recombination ([Wold, 1997]; [Oakley and Patrick, 2010]; [Chen and Wold, 2014]). The RPA-ssDNA complex is a physiologically relevant substrate for the RAD52-mediated strand annealing. […] RPA binds ssDNA with high affinity and extends the ssDNA to its contour length. In our assays such an extension manifests as a distinct FRET state of ~0.3, which is readily distinguished from a FRET state of ~0.48 of free Cy3-dT30-Cy5 ssDNA, as well as ~0.63 FRET of the stoichiometric ssDNA-RPA-RAD52 complex (see Figure 2—figure supplement 1 and ([Grimme and Spies, 2011]) for details). […] Both, however, inhibited the RAD52 binding to and wrapping of RPA-coated ssDNA with IC50 values identical to those determined without RPA (Figure 2e and Figure 3e).
In all experiments, the FRET values for each data point were corrected for the effects of the compounds on the respective substrate in the absence of RAD52.

The target of data set [7] is RAD52;RPA (Homo sapiens?;Homo sapiens?, UniProt P43351;P27694;P15927;P35244 1-418;1-616;1-270;1-121, |). The experiment in a line: FRET; 1 nM RPA-coated ssDNA titrated with RAD52; FRET about 0.63; FRET: 30 mM Tris-acetate pH 7.5, 1 mM DTT, 0.1 mg/mL BSA, 25 C; HTS: 20 mM Hepes pH 7.5, 1 mM DTT, 0.1 mg/mL BSA, 25 C. The settings on record: protein: recombinant;recombinant; tags: ;; chain copies: 7;1;1;1; label: Cy3 and Cy5 at the two ends.

The target in data set [8] is T5, RAD52 (UniProt P43351 1-418).
T5 sequence: T3 sequence (P43351 1-418)
The experiment in a line: FRET; 1 nM ssDNA; stoichiometric wrapped complex at about 8 nM RAD52; FRET: 30 mM Tris-acetate pH 7.5, 1 mM DTT, 0.1 mg/mL BSA, 25 C; HTS: 20 mM Hepes pH 7.5, 1 mM DTT, 0.1 mg/mL BSA, 25 C. Conditions: protein: recombinant; chain copies: 7; label: Cy3 and Cy5 at the two ends.

Data set [9] concerns the target RPA (UniProt P27694;P15927;P35244 1-616;1-270;1-121). The experiment in a line: FRET; 1 nM RPA, 1 nM ssDNA; FRET about 0.3 versus about 0.48 for free DNA; FRET: 30 mM Tris-acetate pH 7.5, 1 mM DTT, 0.1 mg/mL BSA, 25 C; HTS: 20 mM Hepes pH 7.5, 1 mM DTT, 0.1 mg/mL BSA, 25 C. Conditions: protein: recombinant; copies: 1;1;1; label: Cy3 and Cy5 at the two ends.
Data set [10] deals with the molecule itself. Kind of data set: dynamic light scattering; average hydrodynamic radius of RAD52 (15.8 uM) alone or with equimolar compound; 25 C; 50 mM Tris-HCl pH 7.5, 200 mM KCl, 1 mM DTT, 0.5 mM EDTA.

Sequence of RAD52;RPA (P27694 whole entry, chain 2 of 3): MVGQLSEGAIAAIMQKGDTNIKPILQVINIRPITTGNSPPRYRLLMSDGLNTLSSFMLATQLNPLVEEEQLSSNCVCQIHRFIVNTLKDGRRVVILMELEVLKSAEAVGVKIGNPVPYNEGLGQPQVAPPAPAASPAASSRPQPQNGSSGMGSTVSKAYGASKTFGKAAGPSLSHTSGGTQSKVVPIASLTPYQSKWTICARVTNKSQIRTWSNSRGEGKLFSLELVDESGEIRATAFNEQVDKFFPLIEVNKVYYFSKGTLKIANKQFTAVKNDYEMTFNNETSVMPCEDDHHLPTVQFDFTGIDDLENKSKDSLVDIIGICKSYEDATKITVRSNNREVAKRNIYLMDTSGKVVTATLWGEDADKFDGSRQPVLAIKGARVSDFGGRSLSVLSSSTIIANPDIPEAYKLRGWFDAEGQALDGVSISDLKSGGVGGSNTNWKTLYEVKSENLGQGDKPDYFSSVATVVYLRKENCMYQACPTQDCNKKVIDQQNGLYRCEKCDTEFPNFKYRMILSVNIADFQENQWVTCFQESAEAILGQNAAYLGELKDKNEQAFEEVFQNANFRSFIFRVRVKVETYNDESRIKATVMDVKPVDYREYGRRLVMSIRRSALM
Sequence of RAD52;RPA (P15927 whole entry, chain 3 of 3): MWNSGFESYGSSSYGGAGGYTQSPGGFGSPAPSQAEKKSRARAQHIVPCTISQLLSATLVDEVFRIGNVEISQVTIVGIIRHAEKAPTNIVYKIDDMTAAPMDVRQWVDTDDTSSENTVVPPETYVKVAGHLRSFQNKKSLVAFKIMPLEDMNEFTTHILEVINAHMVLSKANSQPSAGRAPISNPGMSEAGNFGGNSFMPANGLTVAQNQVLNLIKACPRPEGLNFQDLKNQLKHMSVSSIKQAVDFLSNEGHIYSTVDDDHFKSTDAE
Sequence of RAD52;RPA (P35244 whole entry, chain 4 of 3): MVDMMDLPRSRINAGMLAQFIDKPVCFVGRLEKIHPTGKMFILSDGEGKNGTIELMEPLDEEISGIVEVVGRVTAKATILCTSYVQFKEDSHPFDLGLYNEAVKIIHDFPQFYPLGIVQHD
Sequence of RPA (UniProt P27694;P15927;P35244 1-616;1-270;1-121) (P27694 whole entry, chain 1 of 3): as the sequence (P27694 whole entry, chain 2 of 3) above
Sequence of RPA (UniProt P27694;P15927;P35244 1-616;1-270;1-121) (P15927 whole entry, chain 2 of 3): as the sequence (P15927 whole entry, chain 3 of 3) above
Sequence of RPA (UniProt P27694;P15927;P35244 1-616;1-270;1-121) (P35244 whole entry, chain 3 of 3): as the sequence (P35244 whole entry, chain 4 of 3) above
T4 sequence (P27694 whole entry): as the sequence (P27694 whole entry, chain 2 of 3) above
T4 sequence (P15927 whole entry): as the sequence (P15927 whole entry, chain 3 of 3) above
T4 sequence (P35244 whole entry): as the sequence (P35244 whole entry, chain 4 of 3) above
T2 sequence (P27694 whole entry): as the sequence (P27694 whole entry, chain 2 of 3) above
T2 sequence (P15927 whole entry): as the sequence (P15927 whole entry, chain 3 of 3) above
T2 sequence (P35244 whole entry): as the sequence (P35244 whole entry, chain 4 of 3) above
T1 sequence (P27694 whole entry partner, one chain of several): as the sequence (P27694 whole entry, chain 2 of 3) above
T1 sequence (P15927 whole entry partner, one chain of several): as the sequence (P15927 whole entry, chain 3 of 3) above
T1 sequence (P35244 whole entry partner, one chain of several): as the sequence (P35244 whole entry, chain 4 of 3) above

On to `NC(Cc1cc(O)c(O)cc1O)C(=O)O` (racemic) [6-hydroxy-DL-dopa], for which, in [1], the “effect on RAD52 supramolecular assembly” value is “disrupts supramolecular assembly of the RAD52 protein”.
As for `O=C(OC1Cc2c(O)cc(O)cc2OC1c1cc(O)c(O)c(O)c1)c1cc(O)c(O)c(O)c1` (stereo not shown) [Compound 6, Epigallocatechin-3-monogallate], in [2], the IC50 (usually the concentration that inhibits the measured activity by half) is ~10 µM. Also, the “effect on the RAD52-RPA interaction” value in [3] was “neither ‘1’ nor ‘6’ interfered with the interaction between the two proteins”. For the same molecule, the “binding to RPA (WaterLOGSY)” value in data set [4] is reported as “also binds to RPA”. In addition, the “binding to RAD52 (WaterLOGSY)” value in data set [5] is reported as “physically interact with RAD52 protein”. Further, in [6], the “effect on the RPA-ssDNA interaction” value is “neither ‘1’ nor ‘6’ affected the RPA-ssDNA interaction”.
TTTTTTTTTTTTTTTTTTTTTTTTTTTTTT (ssDNA) [Cy3-dT30-Cy5]: the binding result in [7], in data set [8] and in data set [9] was “binds” in each case.

B1: 6xHis-tagged human RAD52 protein (natural protein, UniProt P43351 1-418, looked up)
chain: T3 sequence (P43351 1-418)
notes: RAD52, human DNA repair protein; the N-terminal domain in PDB 1KNO is an undecameric ring
Turning to B1, the binding result in data set [10] is reported as “binds”.
